Several values for one entry are separate records, joined by “and”; a condition that tells them apart may be missing. Identical values can stand only once. Like-named read-outs stand apart in the source and are kept apart here.
Columns and labels:
[1] = Pharmacokinetic studies of certain compounds in female Balb/c mice (Example 5); format: in vivo
Method: Pharmacokinetic studies were performed using Balb/c mice, 15-20 g, 6-9 weeks, female, N=9, purchased from Jihui Laboratory Animal Co. LTD. For compound I-29, Balb/c mice, 19-21 g, 9-11 weeks, female, N=9, were used. The mice were fasted overnight and fed at 4 h post dosing.
Animals were dosed via oral gavage (PO) or tail vein injection (IV) with compound. Sampling occurred at 0.083, 0.25, 0.5, 1, 2, 4, 8, and 24 h post dose (8 time points). The animals were restrained manually at the designated time points. Approx. […] of blood was taken from the animals via facial vein for semi-serial bleeding into tubes with K2EDTA. Blood samples were put on ice and centrifuged at 4° C. (2000 g, 5 min) to obtain plasma within 15 min after sample collection. Plasma samples were stored in dry ice temporarily and at approximately −70° C. until analysis.
For oral gavage, the compound was dosed as a suspension in 1% sodium carboxymethyl cellulose (CMC) and 0.2% Tween 80 in water. For 23.8 mg/kg and 30 mg/kg doses, 3 mg/mL was used; for 50 mg/kg doses, 5 mg/mL was used; and for 100 mg/kg doses, 10 mg/mL was used.
For IV administration, the compound was dosed as a solution in 5% DMSO, 5% Solutol HS15 and 90% saline. For 1 mg/kg and 1.48 mg/kg doses, 0.2 mg/mL was used.
Plasma samples were analyzed using LC-MS using a calibration curve of known concentrations.
The results of these studies are summarized in Tables 11-21 below and in FIGS. 2-8. […] BQL=below quantifiable limit for compound in female Balb/c mouse plasma samples. NA=not available. PK parameters were estimated by non-compartmental model using WinNonlin 8.2. If the adjusted rsq (linear regression coefficient of the concentration value on the terminal phase) was less than 0.9, T1/2 might not have been accurately estimated. F value was determined by the following equation: • If AUClast/AUCINF>80%:
F=(AUCINF-EX×DOSEIV)/(AUCINF-IV×DOSEEX)[…] • If AUClast/AUCINF<80% or AUCINF not available:
F=(AUClast-EX×DOSEIV)/(AUClast-IV×DOSEEX)*1000

[2] = test system: ZR-75-1; assay: Cell viability assay, adherent cell line, 5 day Alamar Blue (Example 8): ZR-75-1; format: cell-based; conditions: Homo sapiens, 120 h, ZR-75-1, Breast Cancer Cell Viability
[3] = I-3 IV 1 mg/kg, 24 hr, BQL = below quantifiable limit of 1.00 ng/mL

CC(C)Cc1sc(Nc2ncc(-c3cccs3)cc2C(=O)O)nc1C1CCCCC1 [Compound I-3]
Plasma concentration Individual ([1]; I-3 IV 1 mg/kg, 0.083 hr, 1 mg/kg): 1790 ng/mL and 2660 ng/mL | Plasma concentration Individual ([1]; I-3 IV 1 mg/kg, 0.25 hr, 1 mg/kg): 633 ng/mL and 539 ng/mL | Plasma concentration Individual ([1]; I-3 IV 1 mg/kg, 0.5 hr, 1 mg/kg): 292 ng/mL and 352 ng/mL | Plasma concentration Individual ([1]; I-3 IV 1 mg/kg, 1 hr, 1 mg/kg): 101 ng/mL and 116 ng/mL | Plasma concentration Individual ([1]; I-3 IV 1 mg/kg, 2 hr, 1 mg/kg): 35.6 ng/mL and 28.1 ng/mL | Plasma concentration Individual ([1]; I-3 IV 1 mg/kg, 4 hr, 1 mg/kg): 7.05 ng/mL and 7.52 ng/mL and 21.3 ng/mL | Plasma concentration Individual ([1]; I-3 IV 1 mg/kg, 8 hr, BQL = below quantifiable limit of 1.00 ng/mL, 1 mg/kg): BQL | Plasma concentration Individual [1, 3]: BQL | Plasma concentration Mean [1, 3]: BQL | F ([1]; I-3 PO 30 mg/kg vs IV 1 mg/kg): 36.0% | Plasma concentration Individual ([1]; I-3 PO 30 mg/kg, 0.083 hr, 30 mg/kg): 69.9 ng/mL and 44.9 ng/mL | Plasma concentration Individual ([1]; I-3 PO 30 mg/kg, 0.25 hr, 30 mg/kg): 420 ng/mL and 461 ng/mL | Plasma concentration Individual ([1]; I-3 PO 30 mg/kg, 0.5 hr, 30 mg/kg): 1920 ng/mL and 1840 ng/mL | Plasma concentration Individual ([1]; I-3 PO 30 mg/kg, 1 hr, 30 mg/kg): 1520 ng/mL and 1760 ng/mL | Plasma concentration Individual ([1]; I-3 PO 30 mg/kg, 2 hr, 30 mg/kg): 1530 ng/mL and 1800 ng/mL | Plasma concentration Individual ([1]; I-3 PO 30 mg/kg, 4 hr, 30 mg/kg): 896 ng/mL and 860 ng/mL | Plasma concentration Individual ([1]; I-3 PO 30 mg/kg, 8 hr, 30 mg/kg): 124 ng/mL and 186 ng/mL | Plasma concentration Individual ([1]; I-3 PO 30 mg/kg, 24 hr, 30 mg/kg): 10.6 ng/mL and 4.10 ng/mL and 3.10 ng/mL | concentration at 0.083 hr ([1]; female, Balb/c, mouse, plasma, iv, 1 mg/kg, I-3 IV 1 mg/kg, 0.083 hr, read-out: Plasma concentration Individual): 1910 ng/mL | concentration at 0.083 hr ([1]; female, Balb/c, mouse, plasma, iv, 1 mg/kg, I-3 IV 1 mg/kg, 0.083 hr, read-out: Plasma concentration Mean): 2120 ng/mL | concentration at 0.25 hr ([1]; female, Balb/c, mouse, plasma, iv, 1 mg/kg, I-3 IV 1 mg/kg, 0.25 hr, read-out: Plasma concentration Individual): 511 ng/mL | concentration at 0.25 hr ([1]; female, Balb/c, mouse, plasma, iv, 1 mg/kg, I-3 IV 1 mg/kg, 0.25 hr, read-out: Plasma concentration Mean): 561 ng/mL | concentration at 0.5 h ([1]; female, Balb/c, mouse, plasma, iv, 1 mg/kg, I-3 IV 1 mg/kg, 0.5 hr, read-out: Plasma concentration Individual): 246 ng/mL | concentration at 0.5 h ([1]; female, Balb/c, mouse, plasma, iv, 1 mg/kg, I-3 IV 1 mg/kg, 0.5 hr, read-out: Plasma concentration Mean): 297 ng/mL | concentration at 1 h ([1]; female, Balb/c, mouse, plasma, iv, 1 mg/kg, I-3 IV 1 mg/kg, 1 hr, read-out: Plasma concentration Individual): 111 ng/mL | concentration at 1 h ([1]; female, Balb/c, mouse, plasma, iv, 1 mg/kg, I-3 IV 1 mg/kg, 1 hr, read-out: Plasma concentration Mean): 109 ng/mL | concentration at 2 h ([1]; female, Balb/c, mouse, plasma, iv, 1 mg/kg, I-3 IV 1 mg/kg, 2 hr, read-out: Plasma concentration Individual): 28.7 ng/mL | concentration at 2 h ([1]; female, Balb/c, mouse, plasma, iv, 1 mg/kg, I-3 IV 1 mg/kg, 2 hr, read-out: Plasma concentration Mean): 30.8 ng/mL | concentration at 4 h ([1]; female, Balb/c, mouse, plasma, iv, 1 mg/kg, I-3 IV 1 mg/kg, 4 hr, read-out: Plasma concentration Mean): 12 ng/mL | concentration at 8 h ([1]; female, Balb/c, mouse, plasma, iv, 1 mg/kg, I-3 IV 1 mg/kg, 8 hr, BQL = below quantifiable limit of 1.00 ng/mL, read-out: Plasma concentration Individual): 1.62 ng/mL | concentration at 8 h ([1]; female, Balb/c, mouse, plasma, iv, 1 mg/kg, I-3 IV 1 mg/kg, 8 hr, BQL = below quantifiable limit of 1.00 ng/mL, read-out: Plasma concentration Mean): 1.62 ng/mL | concentration at 0.083 hr ([1]; female, Balb/c, mouse, plasma, po, 30 mg/kg, I-3 PO 30 mg/kg, 0.083 hr, read-out: Plasma concentration Individual): 56.7 ng/mL | concentration at 0.083 hr ([1]; female, Balb/c, mouse, plasma, po, 30 mg/kg, I-3 PO 30 mg/kg, 0.083 hr, read-out: Plasma concentration Mean): 57.2 ng/mL | concentration at 0.25 hr ([1]; female, Balb/c, mouse, plasma, po, 30 mg/kg, I-3 PO 30 mg/kg, 0.25 hr, read-out: Plasma concentration Individual): 453 ng/mL | concentration at 0.25 hr ([1]; female, Balb/c, mouse, plasma, po, 30 mg/kg, I-3 PO 30 mg/kg, 0.25 hr, read-out: Plasma concentration Mean): 445 ng/mL | concentration at 0.5 hr ([1]; female, Balb/c, mouse, plasma, po, 30 mg/kg, I-3 PO 30 mg/kg, 0.5 hr, read-out: Plasma concentration Individual): 1950 ng/mL | concentration at 0.5 hr ([1]; female, Balb/c, mouse, plasma, po, 30 mg/kg, I-3 PO 30 mg/kg, 0.5 hr, read-out: Plasma concentration Mean): 1900 ng/mL | concentration at 1 hr ([1]; female, Balb/c, mouse, plasma, po, 30 mg/kg, I-3 PO 30 mg/kg, 1 hr, read-out: Plasma concentration Individual): 1490 ng/mL | concentration at 1 hr ([1]; female, Balb/c, mouse, plasma, po, 30 mg/kg, I-3 PO 30 mg/kg, 1 hr, read-out: Plasma concentration Mean): 1590 ng/mL | concentration at 2 hr ([1]; female, Balb/c, mouse, plasma, po, 30 mg/kg, I-3 PO 30 mg/kg, 2 hr, read-out: Plasma concentration Individual): 1750 ng/mL | concentration at 2 hr ([1]; female, Balb/c, mouse, plasma, po, 30 mg/kg, I-3 PO 30 mg/kg, 2 hr, read-out: Plasma concentration Mean): 1690 ng/mL | concentration at 4 hr ([1]; female, Balb/c, mouse, plasma, po, 30 mg/kg, I-3 PO 30 mg/kg, 4 hr, read-out: Plasma concentration Individual): 991 ng/mL | concentration at 4 hr ([1]; female, Balb/c, mouse, plasma, po, 30 mg/kg, I-3 PO 30 mg/kg, 4 hr, read-out: Plasma concentration Mean): 916 ng/mL | concentration at 8 hr ([1]; female, Balb/c, mouse, plasma, po, 30 mg/kg, I-3 PO 30 mg/kg, 8 hr, read-out: Plasma concentration Individual): 182 ng/mL | concentration at 8 hr ([1]; female, Balb/c, mouse, plasma, po, 30 mg/kg, I-3 PO 30 mg/kg, 8 hr, read-out: Plasma concentration Mean): 164 ng/mL | concentration at 24 hr ([1]; female, Balb/c, mouse, plasma, po, 30 mg/kg, I-3 PO 30 mg/kg, 24 hr, read-out: Plasma concentration Mean): 5.93 ng/mL | AUC(0-inf) ([1]; mouse, plasma, I-3 IV 1 mg/kg): 834 ng·h/mL | AUC(0-t) ([1]; mouse, plasma, I-3 IV 1 mg/kg): 831 ng·h/mL | C0 ([1]; mouse, plasma, I-3 IV 1 mg/kg): 4100 ng/mL | MRT inf ([1]; mouse, plasma, I-3 IV 1 mg/kg): 0.58 h | MRT last ([1]; mouse, plasma, I-3 IV 1 mg/kg): 0.542 h | clearance ([1]; mouse, plasma, I-3 IV 1 mg/kg): 20 mL/min/kg | half-life ([1]; mouse, plasma, I-3 IV 1 mg/kg): 1.41 h | Vd ([1]; mouse, plasma, I-3 IV 1 mg/kg, read-out: Vss): 0.695 L/kg | AUC(0-inf) ([1]; mouse, plasma, I-3 PO 30 mg/kg): 9000 ng·h/mL | AUC(0-t) ([1]; mouse, plasma, I-3 PO 30 mg/kg): 8980 ng·h/mL | Cmax ([1]; mouse, plasma, I-3 PO 30 mg/kg): 1900 ng/mL | MRT inf ([1]; mouse, plasma, I-3 PO 30 mg/kg): 3.62 h | MRT last ([1]; mouse, plasma, I-3 PO 30 mg/kg): 3.55 h | Tmax ([1]; mouse, plasma, I-3 PO 30 mg/kg): 0.5 h | half-life ([1]; mouse, plasma, I-3 PO 30 mg/kg): 2.77 h | IC50 [2]: ≤ 1000 nM
